The subject of assay [1] is Mycobacterium tuberculosis. In words: Antimycobacterial activity against Mycobacterium tuberculosis H37Ra after […] by microplate alamar Blue assay. Type of assay: functional. In general terms: Resazurin is reduced to fluorescent resorufin, in cell work by metabolically active cells.
Assay [2] relates to NCI-H187. Put plainly: Cytotoxicity against human NCI-H187 cells by sulforhodamine B assay. Type of assay: functional, cell-based. (In general: The SRB assay estimates cell density from bound dye.)
Assay [3] has as its system Vero. Put plainly: Cytotoxicity against african green monkey Vero cells by sulforhodamine B assay. Type of assay: cell-based. Particulars: Chlorocebus sabaeus.
The subject of assay [4] is KB. Put plainly: Cytotoxicity against human KB cells by sulforhodamine B assay. Type of assay: functional, cell-based.

In ChEMBL document CHEMBL1152397, “Cytotoxic and antimycobacterial prenylated flavonoids from the roots of Eriosema chinense” (J Nat Prod, 2009) one finds MIC and IC50 data, which are given here for 13 compounds.

≈ marks a conversion by molar mass, not a printed value.

For orientation: MIC means the smallest concentration in the dilution series that meets the test's criterion for growth inhibition. In general, IC50 refers to the midpoint of a concentration-inhibition curve. Take `CC(C)=CCc1c2c(c(O)c3c(=O)c(O)c(-c4ccc(O)cc4)oc13)C=CC(C)(C)O2` [DEHYDROLUPINIFOLINOL]: 12.5 µg/mL (≈ 29.7 µM) was the least that counted as inhibitory in assay [1] (MIC). For the same compound, the IC50 in assay [2] came to 3.9 µg/mL (≈ 9.28 µM); in assay [3] it was 11.1 µg/mL (≈ 26.4 µM); in assay [4], 5.8 µg/mL (≈ 13.8 µM).

Consider `COc1cccc2c1C(=O)c1c(O)c3c(c(O)c1C2=O)C[C@@](O)(C(=O)CO)C[C@@H]3O[C@H]1C[C@H](N)[C@H](O)[C@H](C)O1` [DOXORUBICIN], for which the IC50 in assay [2] worked out at 0.042 µg/mL (≈ 0.0773 µM); in assay [4], 0.12 µg/mL (≈ 0.221 µM).

For `Cc1c2ccncc2c(C)c2c1[nH]c1ccccc12` [ELLIPTECINE], the IC50 is 0.44 µg/mL (≈ 1.79 µM) in assay [2] and 0.37 µg/mL (≈ 1.5 µM) in assay [4].

The compound `CC(C)=CCc1c(O)c2c(c3c1OC(C)(C)C=C3)O[C@H](c1ccc(O)cc1O)CC2=O` [ERIOSEMAONE A] returned an MIC in assay [1] of 12.5 µg/mL (≈ 29.6 µM). For the same compound, the IC50 in assay [2] was 6 µg/mL (≈ 14.2 µM); in assay [4], 5.8 µg/mL (≈ 13.7 µM).

`CC(C)=CCc1c2c(c(O)c3c1O[C@H](c1ccc(O)cc1O)CC3=O)C=CC(C)(C)O2` [FLEMICHIN D] displayed an MIC in assay [1] of 12.5 µg/mL (≈ 29.6 µM). The IC50 in assay [2] came to 2.1 µg/mL (≈ 4.97 µM); in assay [4], 3.3 µg/mL (≈ 7.81 µM).

In assay [1], `NNC(=O)c1ccncc1` [ISONIAZID] had a minimal inhibitory concentration (MIC) of 0.023 µg/mL (≈ 0.168 µM).

Regarding `COc1ccc([C@H]2Oc3c(CC=C(C)C)c4c(c(O)c3C(=O)[C@@H]2O)C=CC(C)(C)O4)cc1` [KHONKLONGINOL A], the MIC in assay [1] was 25 µg/mL (≈ 57.3 µM). Further, the IC50 in assay [2] amounted to 3 µg/mL (≈ 6.87 µM); in assay [3] it was 7.9 µg/mL (≈ 18.1 µM); in assay [4], 3.1 µg/mL (≈ 7.1 µM).

The compound `COc1ccc([C@H]2Oc3c(CC=C(C)C)c4c(c(O)c3C(=O)[C@H]2O)C=CC(C)(C)O4)cc1` [KHONKLONGINOL B] returned an MIC in assay [1] of 50 µg/mL (≈ 115 µM). Further, the figures for the IC50 in assay [2], in assay [3] and in assay [4] were 4.3 µg/mL (≈ 9.85 µM), 6.9 µg/mL (≈ 15.8 µM) and 3.8 µg/mL (≈ 8.71 µM), respectively.

`COc1ccc(-c2oc3c(CC=C(C)C)c4c(c(O)c3c(=O)c2O)C=CC(C)(C)O4)cc1` [KHONKLONGINOL F] showed an MIC in assay [1] of 100 µg/mL (≈ 230 µM). For the same compound, the IC50 was 2.4 µg/mL (≈ 5.52 µM) in assay [2], 7 µg/mL (≈ 16.1 µM) in assay [3] and 6.7 µg/mL (≈ 15.4 µM) in assay [4].

`COc1ccc([C@@H]2CC(=O)c3c(O)c4c(c(CC=C(C)C)c3O2)OC(C)(C)C=C4)c(O)c1` [KHONKLONGINOL H] came in with an MIC in assay [1] of 25 µg/mL (≈ 57.3 µM). The IC50 in assay [2] is 3.3 µg/mL (≈ 7.56 µM); in assay [3], 6.4 µg/mL (≈ 14.7 µM); in assay [4] it was 5.4 µg/mL (≈ 12.4 µM).

Compound `CC(C)=CCc1c2c(c(O)c3c1O[C@H](c1ccc(O)cc1)[C@@H](O)C3=O)C=CC(C)(C)O2` [LUPINIFOLINOL] yielded an MIC in assay [1] of 25 µg/mL (≈ 59.2 µM). Besides, the IC50 in assay [2] was 3.5 µg/mL (≈ 8.28 µM); in assay [4], 1.73 µg/mL (≈ 4.09 µM).

`CC(C)=CCc1c2c(c(O)c3c1O[C@H](c1ccc(O)cc1)CC3=O)C=CC(C)(C)O2` [LUPINIFOLIN] returned an MIC in assay [1] of 12.5 µg/mL (≈ 30.8 µM). Also, the IC50 in assay [2] was 6.5 µg/mL (≈ 16 µM); in assay [4], 2.4 µg/mL (≈ 5.9 µM).

In the case of `CN[C@@H]1[C@H](O[C@H]2[C@H](O[C@H]3[C@H](O)[C@@H](O)[C@H](N=C(N)N)[C@@H](O)[C@@H]3N=C(N)N)O[C@@H](C)[C@]2(O)C=O)O[C@@H](CO)[C@H](O)[C@H]1O` [STREPTOMYCIN], the MIC in assay [1] was determined as 0.156 µg/mL (≈ 0.268 µM).
